A word on the IC50: it is the midpoint of a concentration-inhibition curve. A word on the inhibition: it is the change of the read-out against control, counted positive when it falls. Read a low inhibition as little suppression.

One assay has as its target p38 MAPKα (Homo sapiens (Human), UniProt Q16539). The experiment in a line: p38 MAPKα enzyme inhibition (FRET, Method 2). The assay is classed as biochemical. The protocol:
(§1) The enzyme inhibitory activities of compounds disclosed herein are determined by FRET using synthetic peptides labelled with both donor and acceptor fluorophores (Z-LYTE, Invitrogen Ltd., Paisley, UK).
The inhibitory activities of test compounds against the p38 MAPKα isoform (MAPK14: Invitrogen), are evaluated indirectly by determining the level of activation/phosphorylation of the down-stream molecule, MAPKAP-K2. The p38 MAPKα protein (80 ng/mL, 2.5 μL) is mixed with the test compound (2.5 μL of either 4 μg/mL, 0.4 μg/mL, 0.04 μg/mL or 0.004 μg/mL) for 2 hr at RT. […] The mixture is incubated for 1 hr at RT. Development reagent (protease, 5 μL) is added for 1 hr prior to detection in a fluorescence microplate reader (Varioskan® Flash, ThermoFisher Scientific).
(§2) In all cases, the site-specific protease cleaves non-phosphorylated peptide only and eliminates the FRET signal. Phosphorylation levels of each reaction are calculated using the ratio of coumarin emission (donor) over fluorescein emission (acceptor), for which high ratios indicate high phosphorylation and low ratios indicate low phosphorylation levels.

For the next assay, the target named is c-Src (Homo sapiens (Human), UniProt P12931). The experiment in a line: c-Src enzyme inhibition (FRET). The assay is classed as biochemical. The protocol: as §1
Chain of c-Src (P12931 whole entry, looked up): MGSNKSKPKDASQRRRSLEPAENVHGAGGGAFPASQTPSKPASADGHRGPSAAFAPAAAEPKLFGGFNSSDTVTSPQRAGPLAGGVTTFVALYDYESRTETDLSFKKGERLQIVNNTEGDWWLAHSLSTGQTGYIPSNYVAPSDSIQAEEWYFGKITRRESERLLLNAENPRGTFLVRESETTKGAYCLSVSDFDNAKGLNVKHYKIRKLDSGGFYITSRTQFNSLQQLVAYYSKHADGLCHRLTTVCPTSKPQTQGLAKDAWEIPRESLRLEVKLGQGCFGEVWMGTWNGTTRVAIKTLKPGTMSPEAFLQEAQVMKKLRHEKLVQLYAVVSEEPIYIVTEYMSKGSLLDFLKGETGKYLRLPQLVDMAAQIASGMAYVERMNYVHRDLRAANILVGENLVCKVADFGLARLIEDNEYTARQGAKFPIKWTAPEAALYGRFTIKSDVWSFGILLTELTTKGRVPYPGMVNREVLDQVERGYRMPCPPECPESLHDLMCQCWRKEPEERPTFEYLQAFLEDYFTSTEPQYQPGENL
(§3) The inhibitory activities of compounds of the invention against c-Src and Syk enzymes (Invitrogen), are evaluated in a similar fashion to that described hereinabove. The relevant enzyme (3000 ng/mL or 2000 ng/mL respectively, 2.5 μL) is incubated with the test compound (either 4 μg/mL, 0.4 μg/mL, 0.04 μg/mL, or 0.004 μg/mL, 2.5 μL each) for 2 hr at RT. The FRET peptides (8 μM. 2.5 μL), and appropriate ATP solutions (2.5 μL, 800 μM for c-Src, and 60 μM ATP for Syk) are then added to the enzymes/compound mixtures and incubated for 1 hr. Development reagent (protease, 5 μL) is added for 1 hr prior to detection in a fluorescence microplate reader (Varioskan® Flash, ThermoFisher Scientific).
as §2

A further assay deals with Syk (Homo sapiens (Human), UniProt P43405). The experiment in a line: Syk enzyme inhibition (FRET). The assay is classed as biochemical. The method, then: as §1, §3, §2
In the next assay the target is GSK3α (Homo sapiens (Human), UniProt P49840). The experiment in a line: GSK 3α enzyme inhibition (FRET, Method 2). The format is biochemical. The protocol: as §1
Chain of GSK3α (P49840 whole entry, canonical isoform): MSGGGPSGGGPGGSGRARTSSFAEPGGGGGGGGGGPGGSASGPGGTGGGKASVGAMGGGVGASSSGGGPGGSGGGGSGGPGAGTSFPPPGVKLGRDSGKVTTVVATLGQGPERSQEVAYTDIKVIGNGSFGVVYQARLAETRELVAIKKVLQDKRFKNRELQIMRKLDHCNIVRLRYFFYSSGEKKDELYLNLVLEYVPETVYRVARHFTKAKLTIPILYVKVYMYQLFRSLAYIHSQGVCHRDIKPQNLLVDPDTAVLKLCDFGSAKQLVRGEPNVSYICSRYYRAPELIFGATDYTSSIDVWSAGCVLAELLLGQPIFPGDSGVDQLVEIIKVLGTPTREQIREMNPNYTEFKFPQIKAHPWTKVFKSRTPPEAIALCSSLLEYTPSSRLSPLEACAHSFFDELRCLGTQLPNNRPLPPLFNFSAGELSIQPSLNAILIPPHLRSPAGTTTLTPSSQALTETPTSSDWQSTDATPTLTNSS
The inhibitory activities of compounds of the invention against the GSK 3α enzyme isoform (Invitrogen), are evaluated by determining the level of activation/phosphorylation of the target peptide. The GSK3-α protein (500 ng/mL, 2.5 μL) is mixed with the test compound (2.5 μL at either 4 μg/mL, 0.4 μg/mL, 0.04 μg/mL, or 0.004 μg/mL) for 2 hr at RT. The FRET peptide (8 μM, 2.5 μL), which is a phosphorylation target for GSK3α, and ATP (40 μM, 2.5 μL) are then added to the enzyme/compound mixture and the resulting mixture incubated for 1 hr. Development reagent (protease, 5 μL) is added for 1 hr prior to detection in a fluorescence microplate reader (Varioskan® Flash, ThermoFisher Scientific).
as §2

The subject of assay [1] is PBMCs. The experiment in a line: (b) LPS-induced TNFα/IL-8 release in PBMC cells. The format is cell-based. To be noted: Homo sapiens, read-out: IC50 for Inhibition of Cytokine Release, IL-8. The protocol:
Peripheral blood mononuclear cells (PBMCs) from healthy subjects are separated from whole blood using a density gradient (Lymphoprep, Axis-Shield Healthcare). The PBMCs are seeded in 96 well plates and treated with compounds at the desired concentration for 2 hours before addition of 1 ng/ml LPS (Escherichia Coli 0111:B4 from Sigma Aldrich) for 24 hours under normal tissue culture conditions (37° C., 5% CO2). The supernatant is harvested for determination of IL-8 and TNFα concentrations by sandwich ELISA (Duo-set, R&D systems) and read on the fluorescence microplate reader (Varioskan® Flash, ThermoFisher Scientific).

Assay [2] relates to PBMCs. The experiment in a line: (i) Cell mitosis assay in PBMCs. The assay is classed as cell-based. The following applies: Homo sapiens, PBMC, 5 μg/mL. The method, then: PBMCs from healthy subjects are separated from whole blood (Quintiles, London, UK) using a density gradient (Histopaque®-1077, Sigma-Aldrich, Poole, UK). The PBMCs (3 million cells per sample) are subsequently treated with 2% PHA (Sigma-Aldrich, Poole, UK) for 48 hr, followed by a 20 hr exposure to varying concentrations of test compounds. At 2 hr before collection, PBMCs are treated with demecolcine (0.1 μg/mL; Invitrogen, Paisley, UK) to arrest cells in metaphase. […] Fluorescence is observed using an ATTUNE flow cytometer (Invitrogen, Paisley, UK), gating for lymphocytes.

Another assay has as its system β-catenin. The experiment in a line: (m) Accumulation of β catenin in d-U937 cells. The assay is classed as cell-based, human. To be noted: Reference Compound at 1 μg/mL defined as 100%. The method, then: U937 cells, a human monocytic cell line, are differentiated into macrophage-type cells by incubation with PMA; (100 ng/mL) for between 48 to 72 hr. The cells are then incubated with either final concentrations of test compound or vehicle for 18 hr. The induction of β-catenin by the test compounds is stopped by replacing the media with 4% formaldehyde solution. Endogenous peroxide activity is neutralised by incubating with quenching buffer (100 μL, 0.1% sodium azide, 1% H2O2 in PBS with 0.05% Tween-20) for 20 min. The cells are washed with washing buffer (200 μL; PBS containing 0.05% Tween-20) and incubated with blocking solution (200 μL; 5% milk in PBS) for 1 hr, re-washed with washing buffer (200 μL) and then incubated overnight with anti-β-catenin antibody solution (50 μL) in 1% BSA/PBS (BD, Oxford, UK).
After washing with washing buffer (3×200 μL; PBS containing 0.05% Tween-20), cells are incubated with an HRP-conjugated secondary antibody solution (100 μL) in 1% BSA/PBS (Dako, Cambridge, UK) and the resultant signal is determined colourimetrically (OD: 450 nm with a reference wavelength of 655 nm) using TMB substrate (50 μL; R&D Systems, Abingdon, UK). This reaction is stopped by addition of 1N H2SO4 solution (50 μL). Cells are then washed with washing buffer and 2% crystal violet solution (50 μL) is applied for 30 min. After washing with washing buffer (3×200 μL), 1% SDS (100 μL) is added to each well and the plates are shaken lightly for 1 hr prior to measuring the absorbance at 595 nm (Varioskan® Flash, Thermo-Fisher Scientific).
The measured OD450-655 readings are corrected for cell number by dividing the OD450-655 by the OD595 readings.

Assay [3] has as its system PBMCs. The experiment in a line: (c) IL-2 and IFN gamma release in CD3/CD28 stimulated PBMC cells. The assay is classed as cell-based. To be noted: Homo sapiens. The method, then:
PBMCs from healthy subjects are separated from whole blood using a density gradient (Lymphoprep, Axis-Shield Healthcare). Cells are added to a 96 well plate pre-coated with a mixture of CD3/CD28 monoclonal antibodies (0.3 ug/ml eBioscience and 3 ug/ml BD Pharmingen respectively). Compound at the desired concentration is then added to the wells and the plate left for 3 days under normal tissue culture conditions. […] The IC50 is determined from the dose response curve.

For a further assay, the system named is HT29 cells. The experiment in a line: (d) IL-1β-induced IL-8 release in HT29 cells. The assay is classed as cell-based. The following applies: Homo sapiens, HT-29, read-out: IC50 for Inhibition of Cytokine Release, IL-8. The method, then: HT29 cells, a human colon adenocarcinoma cell line, are plated in a 96 well plate (24 hrs) and pre-treated with compounds at the desired concentration for 2 hours before addition of 5 ng/ml of IL-1β (Abeam) for 24 hours. Supernatants are harvested for IL-8 quantification by Sandwich ELISA (Duo-set, R&D System). The IC50 is determined from the dose response curve.

The mark [4] stands for this setting: read-out: IC50 for Inhibition of Cytokine Release, IFNγ.
[5] abbreviates: read-out: IC50 for Inhibition of Cytokine Release, IL-2.

Chain of p38 MAPKα (Q16539 whole entry): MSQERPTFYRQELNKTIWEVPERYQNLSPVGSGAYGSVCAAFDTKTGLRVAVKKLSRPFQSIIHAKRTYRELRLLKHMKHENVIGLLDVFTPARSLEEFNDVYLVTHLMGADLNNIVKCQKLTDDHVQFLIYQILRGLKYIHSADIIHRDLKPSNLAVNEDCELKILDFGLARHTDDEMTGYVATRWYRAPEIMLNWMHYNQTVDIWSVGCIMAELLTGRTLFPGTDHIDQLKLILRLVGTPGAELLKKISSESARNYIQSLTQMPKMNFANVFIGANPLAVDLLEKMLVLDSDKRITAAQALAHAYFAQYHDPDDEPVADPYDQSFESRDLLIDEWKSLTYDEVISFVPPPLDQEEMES

As for `C#Cc1cc(Nc2nccc(Oc3ccc(NC(=O)Nc4cc(C(C)C)nn4-c4ccc(C)cc4)c4ccccc34)n2)cc(C(=O)NCCOCCOCCOC)c1` [Example 1, 3-Ethynyl-5-((4-((4-(3-(3-isopropyl-1-(p-tolyl)-1H-pyrazol-5-yl)ureido)-naphthalen-1-yl)oxy)pyrimidin-2-yl)amino)-N-(2-(2-(2-methoxyethoxy)ethoxy)ethyl)-benzamide], the IC50 against p38 MAPKα was 25 nM; against c-Src, 30 nM; on Syk it was 370 nM; against GSK3α, 12.8 µM; in the assay with PBMCs [1], 1.6 nM. For the same molecule, 5 µg/mL produced 3.6% inhibition in the assay with PBMCs [2]. For the same molecule, the “% β-catenin induction” value is reported as −14% in the assay on β-catenin (1 μg/mL), −13% in the assay on β-catenin (5 μg/mL) and −17% in the assay with β-catenin (10 μg/mL).
In the case of `C#Cc1cc(Nc2nccc(Oc3ccc(NC(=O)Nc4cc(C(C)(C)C)nn4-c4ccc(OC)cc4)c4ccccc34)n2)cc(C(=O)NCCOCCOCCOC)c1` [Example 3, 3-((4-((4-(3-(3-(tert-Butyl)-1-(4-methoxyphenyl)-1H-pyrazol-5-yl)ureido)-naphthalen-1-yl)oxy)pyrimidin-2-yl)amino)-5-ethynyl-N-(2-(2-(2-methoxyethoxy)-ethoxy)ethyl)benzamide], the IC50 stood at 39 nM at p38 MAPKα; 14 nM at c-Src; 30 nM on Syk; 12.2 µM at GSK3α; 1.2 nM with PBMCs [1]; 2 nM with PBMCs [3] (setting [4]). Also, the IC50 in the assay with PBMCs [3] (setting [5]) is 7.5 nM. This molecule also displayed an inhibition at 5 µg/mL in the assay with PBMCs [2] of 2.1%. Further, the “% β-catenin induction” value in the assay with β-catenin (1 μg/mL) stood at 1%; in the assay with β-catenin (5 μg/mL) it was 6%; with β-catenin (10 μg/mL), 6%.
Regarding `C#Cc1cc(Nc2nccc(Oc3ccc(NC(=O)Nc4cc(C(C)(C)C)nn4-c4ccc(OC)cc4)c4ccccc34)n2)cc(C(=O)NCCOCCOC)c1` [Example 5, 3-((4-((4-(3-(3-(tert-Butyl)-1-(4-methoxyphenyl)-1H-pyrazol-5-yl)ureido)-naphthalen-1-yl)oxy)pyrimidin-2-yl)amino)-5-ethynyl-N-(2-(2-methoxyethoxy)ethyl)-benzamide], the IC50 at p38 MAPKα was 33 nM; on c-Src, 13 nM; on Syk, 34 nM; against GSK3α it was 13 µM; in the assay with PBMCs [1], 1.2 nM; in the assay with PBMCs [3] (setting [4]), 1.7 nM. For the same molecule, the IC50 in the assay on PBMCs [3] (setting [5]) stood at 52.1 nM. The molecule also returned an inhibition at 5 µg/mL with PBMCs [2] of 10.4%. Moreover, the “% β-catenin induction” value with β-catenin (1 μg/mL) came out at 8%; with β-catenin (5 μg/mL), 2%; with β-catenin (10 μg/mL), 3%.
`C#Cc1cc(Nc2nccc(Oc3ccc(NC(=O)Nc4cc(C(C)(C)C)nn4-c4ccc(N(C)C)cc4)c4ccccc34)n2)cc(C(=O)NCCOCCOCCOC)c1` [Example 9, 3-((4-((4-(3-(3-(tert-Butyl)-1-(4-(dimethylamino)phenyl)-1H-pyrazol-5-yl)ureido)-naphthalen-1-yl)oxy)pyrimidin-2-yl)amino)-5-ethynyl-N-(2-(2-(2-methoxyethoxy)-ethoxy)ethyl)benzamide]: the IC50 at p38 MAPKα came to 98 nM; against c-Src it was 15 nM; at Syk, 35 nM; at GSK3α, 12.1 µM; in the assay on PBMCs [1], 2.9 nM; with PBMCs [3] (setting [4]) it was 8.4 nM. Moreover, the IC50 in the assay on HT29 cells worked out at 3.5 nM. The “% β-catenin induction” value in the assay with β-catenin (1 μg/mL) came out at 1%; in the assay with β-catenin (5 μg/mL) it was 2%; with β-catenin (10 μg/mL), 4%.
`COCCOCCOCCNC(=O)c1cc(Nc2cc(Oc3ccc(NC(=O)Nc4cc(C(C)(C)C)nn4-c4ccc(N(C)C)cc4)c4ccccc34)ccn2)cc(OC)c1` [Example 10, 3-((4-((4-(3-(3-(tert-Butyl)-1-(4-(dimethylamino)phenyl)-1H-pyrazol-5-yl)ureido)-naphthalen-1-yl)oxy)pyridin-2-yl)amino)-5-methoxy-N-(2-(2-(2-methoxyethoxy)-ethoxy)ethyl)benzamide]: the IC50 on p38 MAPKα was 110 nM; against c-Src, 25 nM; at Syk, 48 nM; against GSK3α it was 12 µM; in the assay on PBMCs [1], 3.3 nM; in the assay on PBMCs [3] (setting [4]), 2.7 nM. The IC50 with HT29 cells came out at 4.8 nM. For the same molecule, the “% β-catenin induction” value in the assay with β-catenin (1 μg/mL) is 4%; with β-catenin (5 μg/mL), 2%; in the assay on β-catenin (10 μg/mL), 2%.

The values are drawn from patent publication US10301288B2, “Kinase inhibitors” (Topivert Pharma Limited, priority 2013, dated 2019).
